Assay results published in patent publication US20030194719A1, “Tpst-assay for diagnosis of autism and related disorders” (priority 2000, published 2003).

Legend:
[1] = test system: Tyrosyl protein sulphotransferase (TPST); assay: TPST activity assay in platelets from normal healthy blood donors (35S transfer from PAPS35 to EAY substrate); format: biochemical, human; settings: for TPST activity (0 μM = 100): Table 7; for TPST activity (0 μM = 100.0): Table 5
Experimental: The activity of sulphotransferases can be measured by monitoring the transfer of ^35S from the sulphate donor, PAPS^35, to the product, in this case the synthetic tyrosine substrate EAY. This assay uses platelets from control subjects (n=5) and those patients suffering from a particular disorder, selected from autism (n=14), irritable bowel syndrome (n=3) schizophrenia (gluten-sensitive)(n=4), food allergy (gluten, milk) (n=3) and depression (n=2).
Reaction mixtures were incubated for 50 minutes at 37° C. and reactions were stopped by barium acetate. Unreacted sulphate, proteins and nucleotides were precipitated by zinc sulphate and barium hydroxide. Within the reaction there is a positive and negative control. The positive control is termed 100%, and represents the total amount of radioactivity present in the hot PAPS^35 sample. The negative control is the “no-enzyme” reaction, this represents the amount of sulphate transferred to the product when no enzyme is present, i.e. the chemical reaction. The blank for the reaction is made up without PAPS^35 and without enzyme.
10 ml of whole blood was taken from patients and the blood cells removed. The remaining plasma was centrifuged at 8000 g for 5 mins to sediment the platelets. This platelet pellet was resuspended in 5 ml 10 mM phosphate buffered saline (PBS) containing 10 mM EDTA, recentrifuged at 2000 g at 4° C. for 30 min. […] The platelets were sonicated for 12×10 second bursts at 4° C. The platelet sonicates were stored in 1 ml portions at −70° C. prior to use.
Substrate: 10 μl EAY (300 μM; poly (Glu, Ala, Tyr) 6:3:1) was used in each test assay, to give a final concentration in the reaction of 20 μM. This solution was made up in MES reaction buffer.
Reaction mixtures were made up as in the table above. To begin the assay, platelet homogenate (20 μl) and PAPS^35 (20 μl) were added at 30-second intervals to a final volume of 150 μl. The reaction mixture was then incubated at 37° C. for 40 min. The reaction is stopped by the addition of 200 μl-barium acetate (0.1 M) and the tubes were vortexed and placed on ice for […].
Unreacted sulphate was then precipitated by the addition of 0.1 M zinc sulphate (200 μl) and 0.1 M barium hydroxide (200 μl). The tubes were vortexed and centrifuged at 6500 rpm for 3 min.
Repeat step 3. Supernatant (500 μl) was then added to scintillation fluid (3.5 ml) and S^35 was counted in a Phillips scintillation counter.
Various compounds were investigated, including fatty acids, flavonoids and amino acids. […] Compounds were tested at the concentrations shown and were dissolved in buffer where possible or ethanol if not.
In the Example shown in Table 6 and FIG. 6 compounds were all dissolved in DMSO and tested at 25 μM.

TPST [2] = settings: human alcoholics; cited from earlier work
TPST [3] = settings: stomach and liver of ethanol-fed male Sprague-Dawley rats; cited from earlier work
TPST [4] = settings: PC12 cells; cited from earlier work
[5] = Table 6, 25 μM, dissolved in DMSO, human platelets
[6] = Example 2, concentrations as in Table 2, normal human platelets
[7] = Table 2, 100 μM, normal human platelets

Question: Which “Effect on TPST activity (in words)” value ([1]; Example 3, 25 μM, platelets) does the source give for `O=c1c(-c2ccc(O)cc2)coc2cc(O)ccc12` [Daidzein] here?
Answer: stimulation of TPST activity

Question: And the “% Control TPST Activity” value [1, 5]?
Answer: 279%

Question: What about the “TPST activity (0 μM = 100)” value ([1]; flavonoid 2.5 μM) of the same molecule?
Answer: 100.2

Question: What about the “TPST activity (0 μM = 100)” value ([1]; flavonoid 5 μM) of the same molecule?
Answer: 107.5

Question: And the “TPST activity (0 μM = 100)” value ([1]; flavonoid 10 μM)?
Answer: 181.1

Question: And the “TPST activity (0 μM = 100)” value ([1]; flavonoid 25 μM)?
Answer: 343.2

Question: What about the “TPST activity (0 μM = 100)” value ([1]; flavonoid 50 μM) of the same molecule?
Answer: 303.1

Question: For `CCCCC[C@H](O)/C=C/[C@H]1[C@H](O)CC(=O)[C@@H]1C/C=C\CCCC(=O)O` [PGE2, prostaglandin E2], which “Effect on TPST activity (in words)” value [1, 6] is on record?
Answer: stimulation of activity

Question: What about the “% Control TPST Activity” value [1, 7] of the same molecule?
Answer: 124%

Question: What does the source list for `CCCCCC/C=C\CCCCCCCC(=O)O` [Palmitoleic]?
Answer: TPST activity (0 μM = 100.0) ([1]; fatty acid 10 μM): 99.5; TPST activity (0 μM = 100.0) ([1]; fatty acid 25 μM): 95.2; TPST activity (0 μM = 100.0) ([1]; fatty acid 50 μM): 93.5; TPST activity (0 μM = 100.0) ([1]; fatty acid 100 μM): 81.4

Question: For `O=c1c(O)c(-c2ccc(O)c(O)c2)oc2cc(O)cc(O)c12` [Quercetin], which “% Control TPST Activity” value [1, 7] is on record?
Answer: 3%

Question: What about the “% Control TPST Activity” value [1, 5] of the same molecule?
Answer: 48%

Question: What about the “TPST activity (0 μM = 100)” value ([1]; flavonoid 0.5 μM) of the same molecule?
Answer: 45.8

Question: And the “TPST activity (0 μM = 100)” value ([1]; flavonoid 1 μM)?
Answer: 33.7

Question: What about the “TPST activity (0 μM = 100)” value ([1]; flavonoid 2.5 μM) of the same molecule?
Answer: 25.7

Question: What about the “TPST activity (0 μM = 100)” value ([1]; flavonoid 5 μM) of the same molecule?
Answer: 21.1

Question: What about the “TPST activity (0 μM = 100)” value ([1]; flavonoid 10 μM) of the same molecule?
Answer: 9.5

Question: And the “TPST activity (0 μM = 100)” value ([1]; flavonoid 25 μM)?
Answer: 5

Question: And the “TPST activity (0 μM = 100)” value ([1]; flavonoid 50 μM)?
Answer: 0.9

Question: What about the “TPST activity (0 μM = 100)” value ([1]; flavonoid 100 μM) of the same molecule?
Answer: 0

Question: Which “% Control TPST Activity” value [1, 7] does the source give for `CCCC(=O)O` [Butyric Acid] here?
Answer: 125%

Question: And the “TPST activity (0 μM = 100.0)” value ([1]; fatty acid 0.5 μM)?
Answer: 137.6

Question: And the “TPST activity (0 μM = 100.0)” value ([1]; fatty acid 1 μM)?
Answer: 96.8

Question: And the “TPST activity (0 μM = 100.0)” value ([1]; fatty acid 2.5 μM)?
Answer: 114.3

Question: And the “TPST activity (0 μM = 100.0)” value ([1]; fatty acid 5 μM)?
Answer: 94.6

Question: And the “TPST activity (0 μM = 100.0)” value ([1]; fatty acid 10 μM)?
Answer: 99.2

Question: What about the “TPST activity (0 μM = 100.0)” value ([1]; fatty acid 25 μM) of the same molecule?
Answer: 76.1

Question: And the “TPST activity (0 μM = 100.0)” value ([1]; fatty acid 50 μM)?
Answer: 86.4

Question: What about the “TPST activity (0 μM = 100.0)” value ([1]; fatty acid 100 μM) of the same molecule?
Answer: 62.2

Question: For `N[C@@H](Cc1ccccc1)C(=O)O` [Phenylalanine], which “Effect on TPST activity (in words)” value [1, 6] is on record?
Answer: decreased TPST activity in a dose dependent fashion

Question: What about the “% Control TPST Activity” value ([1]; Table 2, 50 μM, normal human platelets) of the same molecule?
Answer: 79%

Question: What about the “% Control TPST Activity” value ([1]; Table 2, 1000 μM, normal human platelets) of the same molecule?
Answer: 40%

Question: Which “% Control TPST Activity” value [1, 5] does the source give for `O=c1cc(-c2cc(O)cc(O)c2)oc2cc(O)ccc12` [3′,5′,7 OH Flavone] here?
Answer: 32%

Question: Which “% Control TPST Activity” value [1, 5] does the source give for `O=c1c(-c2ccc(O)c(O)c2)coc2cc(O)ccc12` [3′,4′,7 OH Isoflavone] here?
Answer: 17%

Question: With `O=c1c(O)c(-c2ccc(O)cc2)oc2cc(O)cc(O)c12` [Kaempferol] as the molecule, how does the “TPST activity (0 μM = 100)” value ([1]; flavonoid 0.5 μM) read?
Answer: 45.2

Question: What about the “TPST activity (0 μM = 100)” value ([1]; flavonoid 1 μM) of the same molecule?
Answer: 39.9

Question: What about the “TPST activity (0 μM = 100)” value ([1]; flavonoid 2.5 μM) of the same molecule?
Answer: 22.3

Question: What about the “TPST activity (0 μM = 100)” value ([1]; flavonoid 5 μM) of the same molecule?
Answer: 21.4

Question: What about the “TPST activity (0 μM = 100)” value ([1]; flavonoid 10 μM) of the same molecule?
Answer: 14.4

Question: And the “TPST activity (0 μM = 100)” value ([1]; flavonoid 25 μM)?
Answer: 11

Question: And the “TPST activity (0 μM = 100)” value ([1]; flavonoid 50 μM)?
Answer: 7.3

Question: And the “TPST activity (0 μM = 100)” value ([1]; flavonoid 100 μM)?
Answer: 2.9

Question: Which results are given for `NC(=O)CC[C@H](N)C(=O)O` [Glutamine]?
Answer: Effect on TPST activity (in words) [1, 6]: increased activity; % Control TPST Activity [1, 7]: 125%

Question: For `O=c1c(O)c(-c2ccccc2)oc2ccccc12` [3 OH Flavone], which “% Control TPST Activity” value [1, 5] is on record?
Answer: 96%

Question: And the “TPST activity (0 μM = 100)” value ([1]; flavonoid 0.5 μM)?
Answer: 79

Question: What about the “TPST activity (0 μM = 100)” value ([1]; flavonoid 1 μM) of the same molecule?
Answer: 92.6

Question: What about the “TPST activity (0 μM = 100)” value ([1]; flavonoid 2.5 μM) of the same molecule?
Answer: 90.7

Question: What about the “TPST activity (0 μM = 100)” value ([1]; flavonoid 5 μM) of the same molecule?
Answer: 83

Question: What about the “TPST activity (0 μM = 100)” value ([1]; flavonoid 10 μM) of the same molecule?
Answer: 97.9

Question: And the “TPST activity (0 μM = 100)” value ([1]; flavonoid 25 μM)?
Answer: 101.1

Question: What about the “TPST activity (0 μM = 100)” value ([1]; flavonoid 50 μM) of the same molecule?
Answer: 95.5

Question: What about the “TPST activity (0 μM = 100)” value ([1]; flavonoid 100 μM) of the same molecule?
Answer: 94.4

Question: Which “TPST enzyme activity versus normal individuals” value (TPST [2]) does the source give for `CCO` [Ethanol] here?
Answer: two- to three-fold higher

Question: And the “Increase of TPST level” value (TPST [3])?
Answer: over three-fold

Question: And the “Effect on TPST activity (in words)” value [1, 6]?
Answer: stimulation of activity

Question: What about the “% Control TPST Activity” value ([1]; Table 2, 0.4%, normal human platelets) of the same molecule?
Answer: 177%

Question: Which “Effect on TPST activity” value (TPST [4]) does the source give for `[Mn+2]` [Manganese] here?
Answer: suppresses TPST activity

Question: With `CC/C=C\C/C=C\C/C=C\C/C=C\C/C=C\C/C=C\CCC(=O)O` [DHA, docosahexanoic acid] as the molecule, how does the “TPST activity (0 μM = 100.0)” value ([1]; fatty acid 0.5 μM) read?
Answer: 91.8

Question: And the “TPST activity (0 μM = 100.0)” value ([1]; fatty acid 1 μM)?
Answer: 105.2

Question: And the “TPST activity (0 μM = 100.0)” value ([1]; fatty acid 2.5 μM)?
Answer: 115.9

Question: And the “TPST activity (0 μM = 100.0)” value ([1]; fatty acid 5 μM)?
Answer: 109.6

Question: What about the “TPST activity (0 μM = 100.0)” value ([1]; fatty acid 10 μM) of the same molecule?
Answer: 97.0

Question: And the “TPST activity (0 μM = 100.0)” value ([1]; fatty acid 25 μM)?
Answer: 117.8

Question: What about the “TPST activity (0 μM = 100.0)” value ([1]; fatty acid 50 μM) of the same molecule?
Answer: 119.4

Question: And the “TPST activity (0 μM = 100.0)” value ([1]; fatty acid 100 μM)?
Answer: 103.3
